# Results reported in article PMC11435890, “Enzymatic Hydrolysis of Resorcylic Acid Lactones by an Aeromicrobium sp” (Toxins, 2024).
# What was measured:
# [1] = biological target: T1, ScHsp82 (ScHSP82) (Saccharomyces cerevisiae, UniProt P02829); experiment: malachite green ATPase inhibition assay; format: biochemical; conditions: 1 mM ATP, 4% DMSO, 100 mM Tris-HCl pH 7.5, 20 mM KCl, 6 mM MgCl2, 37 °C, 3 h
# T1 construct: gene HSP82; Ni-NTA and gel permeation
# [2] = tested on: T2, RALH (resorcylic acid lactone hydrolase); experiment: LC-HRMS quantification of hydrolyzed product (HZEN), Michaelis-Menten fit; format: biochemical, Aeromicrobium sp. LRDC-1; conditions: 50 mM Tris-HCl pH 8.0, 1% BSA, 37 °C, 25 nM RALH, 20 min
# T2 construct: recombinant, codon-optimized, E. coli BL21(DE3); N-terminal His6-MBP tag removed with TEV protease; homologue alignment 303/316 residues (RALH vs ZenH); catalytic triad Ser117, Asp142, His292
# [3] = tested on: T2, RALH (resorcylic acid lactone hydrolase); experiment: LC-HRMS quantification of hydrolyzed product (HRAD), Michaelis-Menten fit; format: biochemical, Aeromicrobium sp. LRDC-1; conditions: 50 mM Tris-HCl pH 8.0, 1% BSA, 37 °C, 25 nM RALH, 5 min
# T1 sequence (P02829 whole entry): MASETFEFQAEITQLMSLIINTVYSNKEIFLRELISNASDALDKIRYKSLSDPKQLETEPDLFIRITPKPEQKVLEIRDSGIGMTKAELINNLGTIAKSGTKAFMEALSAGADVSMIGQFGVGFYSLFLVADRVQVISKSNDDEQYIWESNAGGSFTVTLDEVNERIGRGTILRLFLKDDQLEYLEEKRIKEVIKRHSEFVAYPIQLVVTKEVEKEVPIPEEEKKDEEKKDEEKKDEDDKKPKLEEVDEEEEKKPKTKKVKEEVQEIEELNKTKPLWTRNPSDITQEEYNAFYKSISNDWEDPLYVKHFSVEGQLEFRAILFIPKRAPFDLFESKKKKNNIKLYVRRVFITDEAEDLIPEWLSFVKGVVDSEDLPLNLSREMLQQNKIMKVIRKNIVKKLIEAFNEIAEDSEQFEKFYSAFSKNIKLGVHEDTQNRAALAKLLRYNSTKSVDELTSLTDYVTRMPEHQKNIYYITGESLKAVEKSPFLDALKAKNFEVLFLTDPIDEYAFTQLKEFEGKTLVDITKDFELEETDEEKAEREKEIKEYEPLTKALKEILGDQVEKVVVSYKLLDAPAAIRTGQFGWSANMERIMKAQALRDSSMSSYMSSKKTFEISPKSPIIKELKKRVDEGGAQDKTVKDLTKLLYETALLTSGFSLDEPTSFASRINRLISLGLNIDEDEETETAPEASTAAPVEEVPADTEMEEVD
Structure (SMILES),% decrease in ATPase activity at 50 μM [1] [%],Km [2] [µM],Km [3] [mM]
"C[C@H]1CCCC(=O)CCC/C=C/c2cc(O)cc(O)c2C(=O)O1 [I, ZEN]",53,24,–
"C[C@@H]1C[C@H]2O[C@@H]2/C=C\C=C\C(=O)Cc2c(Cl)c(O)cc(O)c2C(=O)O1 [III, RAD]",–,–,1.2
